Measurements as given in publication PMC3037362, “Small Molecule Inhibitors of Staphylococcus aureus RnpA Alter Cellular mRNA Turnover, Exhibit Antimicrobial Activity, and Attenuate Pathogenesis” (PLoS Pathogens, 2011).

Tests used:
[1] = target: T1, RnpA (protein component of ribonuclease P) (Staphylococcus aureus, UniProt P0A0H5); experiment: RiboGreen fluorescence RNA degradation screen; agarose gel titration of spa mRNA degradation by purified RnpA; format: biochemical
T1 construct: recombinant full-length predicted open reading frame, N-terminal hexahistidine tag
Text: RiboGreen fluorescence RNA degradation screen; agarose gel titration of spa mRNA degradation by purified RnpA on RnpA (protein component of ribonuclease P) | five of these molecules were bona-fide inhibitors of RnpA-mediated RNA degradation (Figure 3B). One of these compounds, RNPA1000

RNase III = target: T2, RNase III (Escherichia coli, UniProt P0A7Y0); experiment: in vitro ribonuclease activity of commercial enzyme (off-target counter-assay, data not shown); format: biochemical
T2 construct: gene rnc
T2 sequence (P0A7Y0 whole entry): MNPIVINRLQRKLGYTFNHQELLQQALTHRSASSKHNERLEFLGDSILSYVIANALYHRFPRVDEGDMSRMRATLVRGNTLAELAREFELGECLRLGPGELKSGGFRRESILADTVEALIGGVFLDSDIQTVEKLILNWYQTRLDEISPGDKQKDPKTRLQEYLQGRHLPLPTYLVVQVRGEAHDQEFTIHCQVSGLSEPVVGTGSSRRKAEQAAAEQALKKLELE

T1 sequence (P0A0H5 whole entry): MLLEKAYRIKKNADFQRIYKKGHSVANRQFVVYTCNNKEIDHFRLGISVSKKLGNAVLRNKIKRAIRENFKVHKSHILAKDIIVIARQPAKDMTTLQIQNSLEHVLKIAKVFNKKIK

Work on `Cc1cc(/C=C(/C#N)C(=O)Nc2cccc(Br)c2)c(C)n1-c1ccc(C(=O)O)cc1` [RNPA1000] yielded an IC50 [1] of 100 to 125 µM and an IC50 (RNase III) of 500 to 750 µM.
